In paper PMC3639963, “A New Class of Small Molecule Inhibitor of BMP Signaling” (PLoS ONE, 2013):

Experiments:
Assay in all cases: Nanosyn kinase profiling
Type in all cases: biochemical
Settings in all cases: read-out: Percentage inhibition; for inhibition at 0.1 µM: 0.1 µM inhibitor; for inhibition at 1 µM: 1 µM inhibitor
AXL = biological target: T1, AXL (Homo sapiens, UniProt P30530)
T1 construct: purchased Nanosyn (enzymatic panel); SGC in-house recombinant human kinases (DSF panel); Invitrogen (ALK1-6)
T1 sequence (P30530 26-894): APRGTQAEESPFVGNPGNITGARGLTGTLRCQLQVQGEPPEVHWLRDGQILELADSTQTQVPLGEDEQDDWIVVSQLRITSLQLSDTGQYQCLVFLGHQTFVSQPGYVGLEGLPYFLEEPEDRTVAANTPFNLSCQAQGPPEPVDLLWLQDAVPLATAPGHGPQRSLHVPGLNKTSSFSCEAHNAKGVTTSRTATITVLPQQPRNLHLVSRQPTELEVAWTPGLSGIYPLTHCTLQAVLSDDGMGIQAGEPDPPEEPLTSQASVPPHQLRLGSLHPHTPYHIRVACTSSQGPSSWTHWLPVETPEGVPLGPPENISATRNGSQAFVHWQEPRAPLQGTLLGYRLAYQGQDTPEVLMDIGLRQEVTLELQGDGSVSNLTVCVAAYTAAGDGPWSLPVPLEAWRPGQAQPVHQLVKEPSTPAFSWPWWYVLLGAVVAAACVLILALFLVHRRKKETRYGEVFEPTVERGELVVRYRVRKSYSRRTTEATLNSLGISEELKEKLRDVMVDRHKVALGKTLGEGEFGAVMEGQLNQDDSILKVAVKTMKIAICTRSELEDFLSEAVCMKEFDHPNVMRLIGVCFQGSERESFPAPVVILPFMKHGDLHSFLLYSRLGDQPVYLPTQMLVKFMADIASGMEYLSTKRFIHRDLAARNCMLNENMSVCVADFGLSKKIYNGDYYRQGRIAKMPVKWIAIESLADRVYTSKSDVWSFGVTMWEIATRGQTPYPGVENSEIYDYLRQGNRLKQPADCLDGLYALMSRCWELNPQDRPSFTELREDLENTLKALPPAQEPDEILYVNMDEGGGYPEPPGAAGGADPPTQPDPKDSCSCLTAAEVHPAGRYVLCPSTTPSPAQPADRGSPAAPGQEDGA
In short: (§1)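 Percent inhibition of each kinase was measured with the inhibitor at 0.1 µM and at 1 µM, as part of a 200-kinase human selectivity panel.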

LRRK2 = biological target: T2, LRRK2 (Homo sapiens, UniProt Q5S007)
T2 construct: purchased Nanosyn (enzymatic panel); SGC in-house recombinant human kinases (DSF panel); Invitrogen (ALK1-6)
In short: as §1

PRKD1 = biological target: T3, PRKD1 (Homo sapiens, UniProt Q15139)
T3 construct: purchased Nanosyn (enzymatic panel); SGC in-house recombinant human kinases (DSF panel); Invitrogen (ALK1-6)
T3 sequence (Q15139 1-912): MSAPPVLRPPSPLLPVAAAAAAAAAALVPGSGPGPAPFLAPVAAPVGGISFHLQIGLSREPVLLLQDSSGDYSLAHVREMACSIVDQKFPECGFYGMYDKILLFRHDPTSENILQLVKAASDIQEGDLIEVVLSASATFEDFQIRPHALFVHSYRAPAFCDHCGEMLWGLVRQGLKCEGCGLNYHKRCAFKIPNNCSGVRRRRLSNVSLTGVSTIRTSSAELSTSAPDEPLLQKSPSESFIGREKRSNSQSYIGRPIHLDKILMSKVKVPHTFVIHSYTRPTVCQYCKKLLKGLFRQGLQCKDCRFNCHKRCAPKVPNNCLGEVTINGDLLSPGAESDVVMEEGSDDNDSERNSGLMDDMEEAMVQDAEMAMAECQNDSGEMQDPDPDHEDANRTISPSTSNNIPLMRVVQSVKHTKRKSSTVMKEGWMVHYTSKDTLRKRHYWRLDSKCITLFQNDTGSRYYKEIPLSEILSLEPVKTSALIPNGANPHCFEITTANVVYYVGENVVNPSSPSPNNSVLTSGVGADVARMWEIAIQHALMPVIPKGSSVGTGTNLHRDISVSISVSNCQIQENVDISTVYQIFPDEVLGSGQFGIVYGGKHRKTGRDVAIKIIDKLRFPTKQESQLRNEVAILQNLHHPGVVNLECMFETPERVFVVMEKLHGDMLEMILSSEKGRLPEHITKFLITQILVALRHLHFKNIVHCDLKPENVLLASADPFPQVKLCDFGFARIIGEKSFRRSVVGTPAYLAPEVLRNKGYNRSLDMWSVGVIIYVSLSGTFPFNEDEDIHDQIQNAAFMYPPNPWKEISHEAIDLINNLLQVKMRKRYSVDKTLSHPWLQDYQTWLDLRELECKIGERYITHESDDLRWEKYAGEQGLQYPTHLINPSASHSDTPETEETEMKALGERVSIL
In short: as §1

SGK3 = biological target: T4, SGK3 (Homo sapiens, UniProt Q96BR1)
T4 construct: purchased Nanosyn (enzymatic panel); SGC in-house recombinant human kinases (DSF panel); Invitrogen (ALK1-6)
T4 sequence (Q96BR1 1-496): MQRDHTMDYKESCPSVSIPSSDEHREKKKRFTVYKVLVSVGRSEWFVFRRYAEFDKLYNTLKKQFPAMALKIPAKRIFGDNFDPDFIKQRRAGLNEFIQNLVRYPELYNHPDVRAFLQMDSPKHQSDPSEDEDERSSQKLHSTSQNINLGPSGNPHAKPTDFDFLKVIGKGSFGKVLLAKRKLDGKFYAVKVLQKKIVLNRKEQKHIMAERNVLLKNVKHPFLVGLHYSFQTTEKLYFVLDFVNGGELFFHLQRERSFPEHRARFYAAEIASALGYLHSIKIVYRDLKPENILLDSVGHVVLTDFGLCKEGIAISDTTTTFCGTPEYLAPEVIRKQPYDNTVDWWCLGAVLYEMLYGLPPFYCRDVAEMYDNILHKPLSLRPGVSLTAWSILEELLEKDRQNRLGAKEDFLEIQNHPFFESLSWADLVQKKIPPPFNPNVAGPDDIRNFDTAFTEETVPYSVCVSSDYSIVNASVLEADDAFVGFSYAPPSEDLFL
In short: as §1

ALK = biological target: T5, ALK (Homo sapiens, UniProt Q9UM73)
T5 construct: purchased Nanosyn (enzymatic panel); SGC in-house recombinant human kinases (DSF panel); Invitrogen (ALK1-6)
In short: as §1

SRPK1 = biological target: T6, SRPK1 (Homo sapiens, UniProt Q96SB4)
T6 construct: purchased Nanosyn (enzymatic panel); SGC in-house recombinant human kinases (DSF panel); Invitrogen (ALK1-6)
In short: as §1

MAPK1 = biological target: T7, MAPK1 (Homo sapiens, UniProt P28482)
T7 construct: purchased Nanosyn (enzymatic panel); SGC in-house recombinant human kinases (DSF panel); Invitrogen (ALK1-6)
In short: as §1

EPHA2 = biological target: T8, EPHA2 (Homo sapiens, UniProt P29317)
T8 construct: purchased Nanosyn (enzymatic panel); SGC in-house recombinant human kinases (DSF panel); Invitrogen (ALK1-6)
In short: as §1

AKT3 = biological target: T9, AKT3 (Homo sapiens, UniProt Q9Y243)
T9 construct: purchased Nanosyn (enzymatic panel); SGC in-house recombinant human kinases (DSF panel); Invitrogen (ALK1-6)
In short: as §1

T7 sequence (P28482 whole entry): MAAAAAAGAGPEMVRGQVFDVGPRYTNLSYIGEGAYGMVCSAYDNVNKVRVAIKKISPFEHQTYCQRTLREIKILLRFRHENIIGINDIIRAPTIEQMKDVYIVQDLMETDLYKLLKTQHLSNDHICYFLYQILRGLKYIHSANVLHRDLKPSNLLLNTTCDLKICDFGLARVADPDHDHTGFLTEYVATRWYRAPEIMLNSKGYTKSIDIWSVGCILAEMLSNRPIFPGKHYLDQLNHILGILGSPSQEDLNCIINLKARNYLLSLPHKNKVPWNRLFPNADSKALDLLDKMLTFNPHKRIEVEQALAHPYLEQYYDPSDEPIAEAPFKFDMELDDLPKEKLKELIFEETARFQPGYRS
T8 sequence (P29317 24-976): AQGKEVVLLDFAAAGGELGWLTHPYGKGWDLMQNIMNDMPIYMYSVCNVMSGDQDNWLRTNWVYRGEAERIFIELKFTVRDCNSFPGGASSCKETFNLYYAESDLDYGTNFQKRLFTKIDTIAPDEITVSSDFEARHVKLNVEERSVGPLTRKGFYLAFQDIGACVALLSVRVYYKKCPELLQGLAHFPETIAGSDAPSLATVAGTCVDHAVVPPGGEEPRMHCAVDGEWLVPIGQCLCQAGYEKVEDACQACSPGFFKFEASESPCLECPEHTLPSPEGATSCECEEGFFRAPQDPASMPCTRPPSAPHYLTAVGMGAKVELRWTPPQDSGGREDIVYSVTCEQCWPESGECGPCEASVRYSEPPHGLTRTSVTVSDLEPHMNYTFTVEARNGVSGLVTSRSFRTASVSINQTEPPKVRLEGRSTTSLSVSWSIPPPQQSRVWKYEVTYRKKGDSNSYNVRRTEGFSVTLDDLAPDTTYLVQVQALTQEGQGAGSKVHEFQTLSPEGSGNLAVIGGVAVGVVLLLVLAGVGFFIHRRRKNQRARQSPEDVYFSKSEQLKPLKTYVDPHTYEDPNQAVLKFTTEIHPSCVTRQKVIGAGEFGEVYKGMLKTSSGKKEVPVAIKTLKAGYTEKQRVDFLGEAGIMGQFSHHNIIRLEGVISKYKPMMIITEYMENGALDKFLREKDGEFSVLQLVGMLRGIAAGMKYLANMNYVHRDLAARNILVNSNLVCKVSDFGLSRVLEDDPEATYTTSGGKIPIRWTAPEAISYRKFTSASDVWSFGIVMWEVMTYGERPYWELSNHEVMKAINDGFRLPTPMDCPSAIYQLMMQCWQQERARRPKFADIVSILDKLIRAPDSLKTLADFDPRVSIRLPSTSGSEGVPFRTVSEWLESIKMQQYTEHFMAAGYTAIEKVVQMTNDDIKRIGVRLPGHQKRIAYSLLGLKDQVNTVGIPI
T9 sequence (Q9Y243 whole entry): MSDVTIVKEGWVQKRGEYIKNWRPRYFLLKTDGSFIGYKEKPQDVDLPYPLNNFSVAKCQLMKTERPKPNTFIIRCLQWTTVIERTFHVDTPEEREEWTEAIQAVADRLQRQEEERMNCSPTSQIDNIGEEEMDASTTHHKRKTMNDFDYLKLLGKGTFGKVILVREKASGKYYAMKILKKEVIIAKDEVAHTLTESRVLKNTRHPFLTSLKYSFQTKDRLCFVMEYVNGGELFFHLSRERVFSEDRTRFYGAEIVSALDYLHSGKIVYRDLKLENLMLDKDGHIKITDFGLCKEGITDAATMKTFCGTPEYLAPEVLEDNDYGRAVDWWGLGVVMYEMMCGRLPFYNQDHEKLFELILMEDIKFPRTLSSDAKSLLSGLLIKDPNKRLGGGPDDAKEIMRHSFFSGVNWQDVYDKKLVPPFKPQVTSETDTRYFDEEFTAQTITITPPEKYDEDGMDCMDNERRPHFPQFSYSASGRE
T2 sequence (Q5S007 whole entry): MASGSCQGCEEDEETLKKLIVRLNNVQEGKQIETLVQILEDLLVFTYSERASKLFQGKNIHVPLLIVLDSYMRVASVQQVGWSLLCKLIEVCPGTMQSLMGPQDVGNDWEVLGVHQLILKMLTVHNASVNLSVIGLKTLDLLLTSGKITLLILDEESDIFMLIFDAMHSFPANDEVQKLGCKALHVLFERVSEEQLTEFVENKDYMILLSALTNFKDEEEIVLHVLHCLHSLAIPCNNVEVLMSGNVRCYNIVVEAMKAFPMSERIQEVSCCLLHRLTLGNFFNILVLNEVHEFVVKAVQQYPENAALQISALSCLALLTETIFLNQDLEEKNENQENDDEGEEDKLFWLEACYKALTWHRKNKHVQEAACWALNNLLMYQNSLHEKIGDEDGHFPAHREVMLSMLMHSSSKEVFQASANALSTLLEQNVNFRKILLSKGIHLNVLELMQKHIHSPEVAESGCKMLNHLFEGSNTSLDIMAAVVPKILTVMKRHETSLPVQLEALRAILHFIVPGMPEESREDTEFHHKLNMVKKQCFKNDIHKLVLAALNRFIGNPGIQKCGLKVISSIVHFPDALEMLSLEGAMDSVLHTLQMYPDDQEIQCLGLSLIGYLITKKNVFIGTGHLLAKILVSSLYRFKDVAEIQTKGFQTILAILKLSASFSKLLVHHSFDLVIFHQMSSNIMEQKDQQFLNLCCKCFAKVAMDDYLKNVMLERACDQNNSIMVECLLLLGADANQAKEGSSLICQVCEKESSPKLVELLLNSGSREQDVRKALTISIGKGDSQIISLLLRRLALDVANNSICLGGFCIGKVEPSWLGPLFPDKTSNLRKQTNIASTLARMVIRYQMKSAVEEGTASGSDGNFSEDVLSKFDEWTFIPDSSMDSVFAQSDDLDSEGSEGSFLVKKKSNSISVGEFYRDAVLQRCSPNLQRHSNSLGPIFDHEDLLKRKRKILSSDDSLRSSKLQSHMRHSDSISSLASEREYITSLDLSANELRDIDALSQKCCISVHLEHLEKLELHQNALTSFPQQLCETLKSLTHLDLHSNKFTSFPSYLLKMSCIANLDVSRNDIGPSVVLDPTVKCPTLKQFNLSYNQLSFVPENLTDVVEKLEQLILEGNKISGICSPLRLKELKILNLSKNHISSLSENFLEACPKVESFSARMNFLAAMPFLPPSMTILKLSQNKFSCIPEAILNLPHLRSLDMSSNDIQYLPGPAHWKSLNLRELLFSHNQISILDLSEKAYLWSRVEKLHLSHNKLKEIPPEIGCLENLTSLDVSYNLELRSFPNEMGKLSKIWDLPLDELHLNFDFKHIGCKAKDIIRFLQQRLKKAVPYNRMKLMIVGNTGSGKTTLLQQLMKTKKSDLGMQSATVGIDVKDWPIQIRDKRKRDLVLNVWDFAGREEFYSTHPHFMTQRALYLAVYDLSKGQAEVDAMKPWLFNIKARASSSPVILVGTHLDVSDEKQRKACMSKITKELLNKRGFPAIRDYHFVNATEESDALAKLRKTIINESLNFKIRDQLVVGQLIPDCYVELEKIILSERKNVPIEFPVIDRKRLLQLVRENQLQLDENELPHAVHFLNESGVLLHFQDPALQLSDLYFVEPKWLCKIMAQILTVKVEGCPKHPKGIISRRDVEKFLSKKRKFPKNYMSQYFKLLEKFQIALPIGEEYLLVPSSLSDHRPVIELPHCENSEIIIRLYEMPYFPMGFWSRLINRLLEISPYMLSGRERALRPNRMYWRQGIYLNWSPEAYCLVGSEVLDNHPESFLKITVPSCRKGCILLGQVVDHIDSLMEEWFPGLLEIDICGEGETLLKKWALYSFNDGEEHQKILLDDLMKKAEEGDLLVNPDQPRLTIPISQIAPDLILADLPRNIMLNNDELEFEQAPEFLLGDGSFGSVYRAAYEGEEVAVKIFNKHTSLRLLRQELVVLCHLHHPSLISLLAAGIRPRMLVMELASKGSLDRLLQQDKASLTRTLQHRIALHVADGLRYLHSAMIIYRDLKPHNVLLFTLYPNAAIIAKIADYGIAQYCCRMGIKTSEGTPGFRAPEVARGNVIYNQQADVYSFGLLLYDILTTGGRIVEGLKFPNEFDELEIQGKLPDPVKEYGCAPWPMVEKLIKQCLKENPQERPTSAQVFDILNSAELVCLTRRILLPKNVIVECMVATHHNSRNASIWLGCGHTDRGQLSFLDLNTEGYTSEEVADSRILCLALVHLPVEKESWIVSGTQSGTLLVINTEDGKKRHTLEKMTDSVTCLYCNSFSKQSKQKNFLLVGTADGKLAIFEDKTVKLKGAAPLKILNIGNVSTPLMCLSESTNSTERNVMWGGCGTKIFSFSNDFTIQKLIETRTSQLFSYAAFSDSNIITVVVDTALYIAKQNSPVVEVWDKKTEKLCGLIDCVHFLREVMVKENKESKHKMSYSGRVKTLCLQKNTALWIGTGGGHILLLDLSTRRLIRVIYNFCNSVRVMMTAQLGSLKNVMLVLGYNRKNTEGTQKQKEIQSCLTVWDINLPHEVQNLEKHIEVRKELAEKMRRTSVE
T6 sequence (Q96SB4 whole entry): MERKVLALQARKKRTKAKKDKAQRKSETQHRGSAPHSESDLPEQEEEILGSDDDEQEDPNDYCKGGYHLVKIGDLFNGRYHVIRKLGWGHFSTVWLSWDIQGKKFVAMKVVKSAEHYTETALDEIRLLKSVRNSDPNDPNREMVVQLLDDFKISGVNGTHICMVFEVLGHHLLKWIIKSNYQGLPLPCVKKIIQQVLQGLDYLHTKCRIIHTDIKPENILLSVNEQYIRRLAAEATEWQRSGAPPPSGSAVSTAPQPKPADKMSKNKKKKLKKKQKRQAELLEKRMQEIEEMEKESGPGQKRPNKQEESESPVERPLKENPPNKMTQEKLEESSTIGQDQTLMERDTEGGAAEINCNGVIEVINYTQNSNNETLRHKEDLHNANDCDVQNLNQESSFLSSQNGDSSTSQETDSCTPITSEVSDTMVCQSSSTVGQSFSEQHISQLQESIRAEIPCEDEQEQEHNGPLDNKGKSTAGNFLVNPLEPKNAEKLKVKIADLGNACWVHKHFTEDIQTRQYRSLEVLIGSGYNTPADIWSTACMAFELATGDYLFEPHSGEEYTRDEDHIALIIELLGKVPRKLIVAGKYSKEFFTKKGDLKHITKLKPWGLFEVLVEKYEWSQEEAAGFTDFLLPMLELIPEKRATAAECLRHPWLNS

Row | Compound | inhibition at 0.1 µM (AXL) [%] | inhibition at 1 µM (AXL) [%] | inhibition at 0.1 µM (LRRK2) [%] | inhibition at 1 µM (LRRK2) [%] | inhibition at 0.1 µM (PRKD1) [%] | inhibition at 1 µM (PRKD1) [%] | inhibition at 0.1 µM (SGK3) [%] | inhibition at 1 µM (SGK3) [%] | inhibition at 0.1 µM (ALK) [%] | inhibition at 1 µM (ALK) [%] | inhibition at 0.1 µM (SRPK1) [%] | inhibition at 1 µM (SRPK1) [%] | inhibition at 0.1 µM (MAPK1) [%] | inhibition at 1 µM (MAPK1) [%] | inhibition at 0.1 µM (EPHA2) [%] | inhibition at 1 µM (EPHA2) [%] | inhibition at 0.1 µM (AKT3) [%] | inhibition at 1 µM (AKT3) [%]
1 | COc1cc(-c2cc(-c3cccc(O)c3)cnc2N)cc(OC)c1OC [K02288, 3-[6-amino-5-(3,4,5-trimethoxy-phenyl)-pyridin-3-yl]-phenol] | 0.9 | 1.5 | 7.1 | 27 | 0 | 6.1 | -2 | -1 | -1 | 2.5 | 3.2 | 2.7 | -3 | 9.9 | -2 | 3 | -2 | 1.2
2 | c1ccc2c(-c3cnn4cc(-c5ccc(N6CCNCC6)cc5)cnc34)ccnc2c1 [LDN-193189] | -4 | 1.1 | 8.7 | 27 | 4.6 | 15 | 1.6 | 2.3 | 3.7 | 12 | -1 | -2 | 2.6 | 1.4 | -2 | -3 | 0.2 | 1.5
